Test results published in patent publication US7576099B2, “Amide derivatives as ion-channel ligands and pharmaceutical compositions and methods of using the same” (Renovis, Inc., priority 2005, dated 2009).

Columns and labels:
VR1 [1] = target: T1, VR1 (Homo sapiens, UniProt Q8NER1); experiment: Acid stimulation assay (FDSS 6000, intracellular calcium); format: cell-based; parameters: host or cells: only 'the cell suspension' is mentioned; conditions: final assay buffer pH5.8, 15 minutes pre-incubation
Experimental: The Acid-induced changes in the intracellular calcium concentration were monitored using FDSS 6000 (Hamamatsu Photonics, Japan), a fluorometric imaging system. The cell suspension in resting buffer (HBSS supplemented with 10 mM HEPES, pH 7.4) was pre-incubated with varying concentrations of the test compounds or resting buffer (buffer control) for 15 minutes at room temperature under dark conditions. The cells were automatically added the stimulating solution (HBSS supplemented with MES, final assay buffer pH5.8) by the FDSS 6000.
Target sequence in this assay (Q8NER1 whole entry, species assumed): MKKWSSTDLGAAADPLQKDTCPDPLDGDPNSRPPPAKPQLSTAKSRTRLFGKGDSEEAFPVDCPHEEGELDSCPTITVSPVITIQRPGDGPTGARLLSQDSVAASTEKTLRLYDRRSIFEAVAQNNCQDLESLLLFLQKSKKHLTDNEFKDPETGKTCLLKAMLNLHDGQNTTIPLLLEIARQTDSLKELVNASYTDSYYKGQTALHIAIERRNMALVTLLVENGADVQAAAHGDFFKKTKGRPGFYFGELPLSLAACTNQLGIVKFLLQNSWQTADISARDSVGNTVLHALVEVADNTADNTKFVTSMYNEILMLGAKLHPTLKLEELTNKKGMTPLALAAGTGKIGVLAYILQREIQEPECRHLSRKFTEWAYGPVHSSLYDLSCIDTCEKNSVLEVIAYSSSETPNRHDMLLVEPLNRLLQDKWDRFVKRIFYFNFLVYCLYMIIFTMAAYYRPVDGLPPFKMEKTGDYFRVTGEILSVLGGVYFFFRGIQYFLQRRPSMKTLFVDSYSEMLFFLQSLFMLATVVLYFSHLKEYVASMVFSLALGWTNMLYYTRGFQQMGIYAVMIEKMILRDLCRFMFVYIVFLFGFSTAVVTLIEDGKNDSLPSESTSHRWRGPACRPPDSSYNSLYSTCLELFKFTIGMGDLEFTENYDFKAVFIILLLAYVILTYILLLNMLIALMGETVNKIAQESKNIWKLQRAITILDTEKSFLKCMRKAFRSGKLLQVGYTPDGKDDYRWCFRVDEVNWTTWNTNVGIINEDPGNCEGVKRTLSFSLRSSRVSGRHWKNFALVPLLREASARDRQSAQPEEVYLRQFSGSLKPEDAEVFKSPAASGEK

VR1 [2] = target: T1, VR1; experiment: Calcium uptake assay (Fura2, Flex Station) in HEK 293 cells expressing hVR1; format: cell-based; parameters: expressed in transfected cells; host or cells: T-REx HEK 293 (Invitrogen), pcDNA5/TO vector, doxycycline induced; conditions: for inhibition at 0.3 µM: HEK293, read-out: Low pH % Inhib. @ 0.3 μM; for inhibition of the Capsaicin induced intracellular calcium response (FIGS. 2-6): 3 nM compound, capsaicin as agonist, calcium uptake assay method
Target sequence in this assay (Q8NER1 whole entry): as the sequence (Q8NER1 whole entry, species assumed) above

[3] = Half-life in human liver microsomes (HLM); format: in vitro ADME; conditions: human liver microsomes (HLM, HL101), pH 7.4, 1 μM compound, 0.78 mg/mL HLM, NADPH, 37° C.
Experimental: Test compounds (1 μM) were incubated with 3.3 mM MgCl2 and 0.78 mg/mL HLM (HL101) in 100 mM potassium phosphate buffer (pH 7.4) at 37° C. on the 96-deep well plate. The reaction mixture was split into two groups, a non-P450 and a P450 group. NADPH was only added to the reaction mixture of the P450 group. An aliquot of samples of P450 group was collected at 0, 10, 30, and 60 min time point, where 0 min time point indicated the time when NADPH was added into the reaction mixture of P450 group. An aliquot of samples of non-P450 group was collected at −10 and 65 min time point. Collected aliquots were extracted with acetonitrile solution containing an internal standard. The precipitated protein was spun down in centrifuge (2000 rpm, 15 min). The compound concentration in supernatant was measured by LC/MS/MS system.
The half-life value was obtained by plotting the natural logarithm of the peak area ratio of compounds/internal standard versus time. The slope of the line of best fit through the points yields the rate of metabolism (k). […]
Exemplary compounds of the invention were tested (1 μM), and were incubated with 3.3 mM MgCl2 and 0.78 mg/mL HLM (HL101) in 100 mM potassium phosphate buffer (pH 7.4) at 37° C. on the 96-deep well plate. […] The compound concentration in supernatant was measured by LC/MS/MS system. […]

VR1 receptor = experiment: Calcium imaging assay in DRG neurons (Example 1); format: cell-based; conditions: 3 nM compound
Experimental: Therefore the functional activity of compounds at the VR1 receptor may be determined by measuring changes in intracellular calcium levels in neurons such as the dorsal root ganglion. […] Prior to assay, cells were loaded with 5 μg/ml Fura2 in normal saline solution at 37° C. for 40 minutes. Cells were then washed with normal saline to remove dye before commencement of the experiment. The plated neurons were transferred into a chamber on the stage of a Nikon eclipse TE300 microscope after which neurons were allowed to attain a stable fluorescence for about 10 minutes before beginning the experiment. The assay consists of two stages, a pretreatment phase followed by a treatment phase. First, a solution of the test compound was added from a multivalve perfusion system to the cells for 1 minute (pretreatment). […] Fura2 was excited at 340 and 380 nm to indicate relative calcium ion concentration. Changes in wavelength measurements were made throughout the course of the experiment. The fluorescence ratio was calculated by dividing fluorescence measured at 340 nm by that at 380 nm. Data were collected using Intelligent Imaging's Slidebook software.

[4] = 0.3 μM compound, low pH (protons) as agonist, HEK 293 cells expressing hVR1

Question: For `O=C(Nc1ccc2c(c1)OCC(CO)O2)c1ccc(/C=C/C(F)(F)F)cc1` (single isomer, unassigned) [Compound 108], which IC50 (VR1 [1]) is on record?
Answer: 5 nM

Question: For `CC(C)(C)C#Cc1ccc(C(=O)Nc2cnc3ccccc3c2)cn1` [Compound 24], which inhibition at 0.3 µM (VR1 [2]; [4]) is on record?
Answer: 101%

Question: With `O=C(Nc1cccc2cnccc12)c1ccc(C#CC(F)(F)F)cc1` [Compound 45] as the molecule, how does the “inhibition of the Capsaicin induced intracellular calcium response (FIGS. 2-6)” value (VR1 [2]) read?
Answer: significant inhibition

Question: With `O=C1COc2ccc(NC(=O)c3ccc(/C=C/C(F)(F)F)cc3)cc2N1` [Compound 57] as the molecule, how does the inhibition at 0.3 µM (VR1 [2]; [4]) read?
Answer: 58%

Question: For `CC1(C)Oc2ccc(NC(=O)c3ccc(/C=C/C(F)(F)F)cc3)cc2NC1=O` [Compound 58], which inhibition at 0.3 µM (VR1 [2]; [4]) is on record?
Answer: 19%

Question: Which inhibition at 0.3 µM (VR1 [2]; [4]) does the source give for `CN1CCC(C)(C)c2ccc(NC(=O)c3ccc(C#CC(C)(C)C)cc3)cc21` [Compound 59] here?
Answer: 83%

Question: What does the source list for `CC(C)(C)C#Cc1ccc(C(=O)Nc2cccc3cnccc23)cc1OCCN1CCOCC1` [Compound 60]?
Answer: half-life at 1 μM [3]: 21 min; inhibition at 0.3 µM (VR1 [2]; [4]): 69%

Question: For `O=C1COc2cc(NC(=O)c3ccc(/C=C/C(F)(F)F)cc3)ccc2N1` [Compound 61], which inhibition at 0.3 µM (VR1 [2]; [4]) is on record?
Answer: 10%

Question: Which inhibition at 0.3 µM (VR1 [2]; [4]) does the source give for `O=C(Nc1ccc2c(c1)NCCO2)c1ccc(/C=C/C(F)(F)F)cc1` [Compound 62] here?
Answer: 14%

Question: What does the source list for `O=C(Nc1ccc2c(c1)OCCN2)c1ccc(/C=C/C(F)(F)F)cc1` [Compound 63]?
Answer: half-life at 1 μM [3]: 24 min; inhibition at 0.3 µM (VR1 [2]; [4]): 123%

Question: For `CC1(C)CNc2cc(NC(=O)c3ccc(/C=C/C(F)(F)F)cc3)ccc2O1` [Compound 64], which inhibition at 0.3 µM (VR1 [2]; [4]) is on record?
Answer: 10%

Question: With `O=C(Nc1ccc2c(c1)OCCN2)c1ccc(C#CC(F)(F)F)cc1` [Compound 70] as the molecule, how does the IC50 (VR1 [1]) read?
Answer: 5 nM

Question: What about the “Low pH % Inhib. @ 0.3 μM” value (VR1 [2]; [4]) of the same molecule?
Answer: 185%

Question: With `O=C(Oc1ccc2c(c1)OC(CO)CO2)c1ccc(C#CC2CC2)cc1` (stereo not drawn) [Compound 86] as the molecule, how does the inhibition at 0.3 µM (VR1 [2]; [4]) read?
Answer: 83%

Question: With `O=C(Oc1ccc2c(c1)OCC(CO)O2)c1ccc(C#CC2CC2)cc1` (stereo not drawn) [Compound 87] as the molecule, how does the inhibition at 0.3 µM (VR1 [2]; [4]) read?
Answer: 98%

Question: Which “inhibition of the Capsaicin induced intracellular calcium response (FIGS. 2-6)” value (VR1 [2]) does the source give for `C/C(=C\C(F)(F)F)c1ccc(C(=O)Nc2ccc3c(c2)OCCN3)cc1` [Compound 96] here?
Answer: significant inhibition

Question: Which inhibition at 0.3 µM (VR1 [2]; [4]) does the source give for `Cc1cc2c(NC(=O)c3ccc(/C=C/C(F)(F)F)cc3)cccc2nn1` [Compound 113] here?
Answer: 9%

Question: Which “inhibition of the Capsaicin induced intracellular calcium response (FIGS. 2-6)” value (VR1 [2]) does the source give for `Cc1cc(C#CC(C)(C)C)ccc1C(=O)Nc1ccc2c(c1)OCC(CO)N2` (stereo not drawn) [Compound 167] here?
Answer: significant inhibition

Question: With `Cc1cc(/C=C/C(F)(F)F)ccc1C(=O)Nc1cnc2ccccc2c1` [Compound 187] as the molecule, how does the “inhibition of the Capsaicin induced intracellular calcium response (FIGS. 2-6)” value (VR1 [2]) read?
Answer: significant inhibition

Question: For `Cc1cc(/C=C/C(F)(F)F)ccc1C(=O)Nc1cnc2c(c1)OCC(O)CN2` (stereo not drawn) [Compound 189], which inhibition at 0.3 µM (VR1 [2]; [4]) is on record?
Answer: 87%

Question: For `Cc1cc(/C=C/C(F)(F)F)ccc1C(=O)Nc1ccc2sc(CO)nc2c1` [Compound 225], which “inhibition of the Capsaicin induced intracellular calcium response (FIG. 1)” value (VR1 receptor) is on record?
Answer: significant inhibition

Question: And the “inhibition of the Capsaicin induced intracellular calcium response (FIG. 1)” value (VR1 receptor; listed as compound 225)?
Answer: reduced

Question: And the “% inhibition of capsaicin induced calcium influx” value (VR1 receptor; treatment time 20 sec, capsaicin 250 nM)?
Answer: >75%

Question: For `Cc1cc(/C=C/C(F)(F)F)ccc1C(=O)NC1=CC2CNCCC2N=C1` (stereo not drawn) [Compound 229], which inhibition at 0.3 µM (VR1 [2]; [4]) is on record?
Answer: 54%

Question: For `Cc1cc(/C=C/C(F)(F)F)ccc1C(=O)Nc1cnc2c(c1)OCC(CO)N2` (stereo not drawn) [Compound 233], which “inhibition of the Capsaicin induced intracellular calcium response (FIGS. 2-6)” value (VR1 [2]) is on record?
Answer: significant inhibition
